The source of these data is PubChem BioAssay (NCI).

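Grown in 96-well plates, cells were treated for 48 hours with each compound at five concentrations. Insufficient inhibition: endpoint recorded as highest concentration tested. TGI: concentration producing complete growth inhibition.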

Test systems include ACHN renal; CCRF-CEM leukemia; HOP-92 NSCLC; K-562 leukemia; MCF7 breast; MDA-MB-435; NCI/ADR-RES ovarian; OVCAR-3 ovarian; SF-295 CNS; SNB-19 CNS; SR leukemia; T-47D breast; UACC-257 melanoma; HT29 colon.
Test in all cases: inhibition of tumour cell growth, NCI panel, 48 h

On to `CC(=O)c1ccc(N=NN2CCCC2)cc1`, for which the TGI in the assay with ACHN renal, in the assay on CCRF-CEM leukemia, with HOP-92 NSCLC, in the assay on K-562 leukemia, in the assay with MCF7 breast and in the assay with MDA-MB-435 was over 100 µM in each case. The TGI with NCI/ADR-RES ovarian, in the assay on OVCAR-3 ovarian, in the assay with SF-295 CNS, in the assay on SNB-19 CNS, in the assay with SR leukemia and in the assay with T-47D breast was over 100 µM each time. Further, the TGI with UACC-257 melanoma is over 100 µM.

Regarding `S=C1Cc2c(-c3ccccc3)cc(-c3cccc(Cl)c3)nc2-c2ccccc2N1`, the TGI was 3.89 µM in the assay with ACHN renal; 30.5 µM in the assay on CCRF-CEM leukemia; 5.12 µM with HOP-92 NSCLC; 11.5 µM in the assay with HT29 colon; over 100 µM in the assay on K-562 leukemia; over 58.1 µM in the assay on MCF7 breast. Also, the TGI in the assay on MDA-MB-435 was over 60.9 µM; in the assay on NCI/ADR-RES ovarian it was 8.32 µM; in the assay with OVCAR-3 ovarian, 25.9 µM; with SF-295 CNS, 17.2 µM; in the assay with SNB-19 CNS, 7.97 µM; in the assay on SR leukemia, 46.9 µM. Besides, the figures for the TGI with T-47D breast and with UACC-257 melanoma were 21.6 µM and 35 µM, respectively.

Take `Cc1c(C)c2c(c(N)c1C#N)C(=O)N(Cc1ccc(S(N)(=O)=O)cc1)C2=O`: the TGI with ACHN renal was over 63.4 µM; with CCRF-CEM leukemia, over 100 µM; with HOP-92 NSCLC, over 44.6 µM; with HT29 colon it was over 100 µM; with K-562 leukemia, over 100 µM; with MCF7 breast it was over 100 µM. Besides, the TGI was over 100 µM in the assay with MDA-MB-435; over 100 µM in the assay on NCI/ADR-RES ovarian; over 63.2 µM in the assay on OVCAR-3 ovarian; over 56.6 µM in the assay with SF-295 CNS; 38.7 µM with SNB-19 CNS; over 100 µM with SR leukemia. The TGI was over 59.2 µM with T-47D breast and over 100 µM in the assay on UACC-257 melanoma.

In the case of `Cc1c(C)c(S(=O)(=O)N(CCCCN)OCCCN)c(C)c2c1OC(C)(C)CC2`, the TGI is 47.2 µM in the assay on ACHN renal; 98.3 µM with CCRF-CEM leukemia; 80.6 µM in the assay with HOP-92 NSCLC; 40.4 µM with HT29 colon; over 100 µM with K-562 leukemia; over 100 µM in the assay on MCF7 breast. Moreover, the TGI was 45.1 µM with MDA-MB-435; over 100 µM in the assay on NCI/ADR-RES ovarian; 30.6 µM with OVCAR-3 ovarian; 40.6 µM in the assay with SF-295 CNS; 37.3 µM in the assay with SNB-19 CNS; over 100 µM with SR leukemia. In addition, the TGI with T-47D breast is over 100 µM; in the assay with UACC-257 melanoma, 61.4 µM.

Take `c1cc(-c2ccc(-c3ccsc3)s2)cs1`: the TGI with ACHN renal is over 100 µM; in the assay on CCRF-CEM leukemia, 44.4 µM; in the assay with HOP-92 NSCLC, over 100 µM; with HT29 colon, over 100 µM; in the assay on K-562 leukemia it was over 100 µM; in the assay with MCF7 breast it was over 100 µM. The TGI was over 100 µM in the assay on MDA-MB-435; 87.5 µM with NCI/ADR-RES ovarian; over 100 µM in the assay on OVCAR-3 ovarian; over 100 µM in the assay with SF-295 CNS; over 100 µM with SR leukemia; over 100 µM in the assay on T-47D breast. The compound further came in with a TGI in the assay on UACC-257 melanoma of over 100 µM.

`C=C1CC[C@@H](CCC2CCC3(OC2)O[C@]2(O)CC[C@@]3(C)OC2(C)C)C(C)(C)[C@H]1C/C=C1\CCOC1=O` (stereo not given in full): the TGI was over 100 µM in the assay on ACHN renal; 83 µM in the assay with CCRF-CEM leukemia; 66.4 µM in the assay with HOP-92 NSCLC; 31.1 µM in the assay on HT29 colon; 26.5 µM in the assay with K-562 leukemia; 28.9 µM in the assay on MCF7 breast. Further, the TGI in the assay on MDA-MB-435 is 86.4 µM; in the assay with NCI/ADR-RES ovarian, over 100 µM; in the assay with OVCAR-3 ovarian, 54.8 µM; in the assay with SNB-19 CNS it was over 100 µM; with SR leukemia, over 52.2 µM; with T-47D breast, 90.3 µM. In addition, the TGI in the assay with UACC-257 melanoma was over 67.6 µM.

For the compound `CCOC(=O)c1c2c(n(-c3ccc(C)cc3)c1C)-c1ccccc1C(=O)C2(C(=O)OCC)C(=O)OCC`, the TGI with ACHN renal is over 100 µM; with CCRF-CEM leukemia, over 100 µM; with HOP-92 NSCLC, 88.6 µM; in the assay with HT29 colon, over 84.3 µM; in the assay on K-562 leukemia, over 59.4 µM; with MCF7 breast, 76.6 µM. The TGI is 93.5 µM in the assay on MDA-MB-435; over 85.3 µM in the assay with NCI/ADR-RES ovarian; 69.2 µM with OVCAR-3 ovarian; over 100 µM in the assay with SF-295 CNS; over 100 µM in the assay with SNB-19 CNS; over 4.64 µM in the assay on SR leukemia. The TGI in the assay with T-47D breast was 64.5 µM; in the assay with UACC-257 melanoma it was over 100 µM.

Turning to `CCCCCCCCCCCCCCCCCCNc1ccn(C2OC(COP(=O)(O)OCC3OC(n4ccc(N)nc4=O)C(O)C3O)C(O)C2O)c(=O)n1` (stereo not given), the TGI in the assay with ACHN renal, in the assay with CCRF-CEM leukemia, with HOP-92 NSCLC, in the assay with HT29 colon, in the assay on K-562 leukemia and in the assay on MCF7 breast was over 100 µM each time. For the same compound, the TGI in the assay on MDA-MB-435, in the assay with NCI/ADR-RES ovarian, with OVCAR-3 ovarian, in the assay on SF-295 CNS, in the assay with SNB-19 CNS and with SR leukemia was over 100 µM throughout. Besides, the TGI in the assay with T-47D breast and in the assay with UACC-257 melanoma was over 100 µM throughout.

Regarding `O=C1CC(O)c2cscc21` (stereo not given), the TGI in the assay with ACHN renal was over 100 µM; with CCRF-CEM leukemia it was 45.8 µM; with HOP-92 NSCLC it was over 100 µM; with HT29 colon, over 100 µM; in the assay with K-562 leukemia it was over 100 µM; in the assay on MCF7 breast it was over 100 µM. Also, the TGI in the assay on MDA-MB-435, with NCI/ADR-RES ovarian, in the assay on OVCAR-3 ovarian, in the assay on SF-295 CNS, with SR leukemia and in the assay with T-47D breast was over 100 µM throughout. The compound also yielded a TGI in the assay on UACC-257 melanoma of over 100 µM.

Regarding `O=C(O)CCCc1ccc2c(c1)CC1(C2)Cc2cc3c(cc2C1)CCCC3`, the TGI in the assay with ACHN renal is 33.1 µM; in the assay with CCRF-CEM leukemia, 27.9 µM; in the assay on HOP-92 NSCLC, 44.2 µM; in the assay on HT29 colon it was 30.4 µM; with K-562 leukemia, 25.9 µM; in the assay with MCF7 breast, 94.2 µM. Moreover, the TGI in the assay with MDA-MB-435 was 38 µM; in the assay with NCI/ADR-RES ovarian, 87.4 µM; in the assay on OVCAR-3 ovarian, 35.2 µM; in the assay on SF-295 CNS, 56.9 µM; in the assay on SR leukemia it was 40.7 µM; in the assay on T-47D breast, over 100 µM. Further, in the assay with UACC-257 melanoma, the TGI is over 100 µM.
